This note sets out measurements from paper PMC11996864, “A small-molecule inhibitor of BCL10-MALT1 interaction abrogates progression of diffuse large B cell lymphoma” (The Journal of Clinical Investigation, 2025).

Molecules are shown by their SMILES.

One may read the IC50 as the midpoint of a concentration-inhibition curve.

This assay deals with OCI-Ly3 cells. The assay can be described thus: cells. The settings on record: Homo sapiens, OCI-Ly3, 20 h; IL-10 secretion; read-out: IC50 (µM) IL-10 inhibition. Set-up: species or system TMD8 or OCI-Ly3; Inhibition of spontaneous IL-10 secretion from ABC-DLBCL cells, human IL-10 ELISA of supernatants. The protocol: Cytokine ELISAs. Cytokines in cell culture supernatants were measured 20-24h after treatment with 0, 0.01, 0.03, 0.1, 0.3, 1, or 3 µM of compounds using the following ELISA kits according to the manufacturer’s instructions: Human IL-2 ELISA (BioLegend Cat# 431804), Human IL-6 ELISA (BioLegend Cat# 430504), and Human IL-10 ELISA (BioLegend Cat# 430604). TMD8 and OCI-Ly3 cells were treated with specific doses of compounds in serum-free media for 20 hours. Jurkat T cells were pretreated with specific doses of compounds for 8 hours in serum-free media, then stimulated with PMA/ionomycin for 16 hours prior to the collection of supernatants. Mouse splenocytes were isolated from spleens of C57/BL6 mice by passing spleens through a 70 micron filter followed by red blood cell lysis using ACK lysing buffer (Quality Biologics, Cat# 118-156-101). […] Supernatant was collected at 24 hours and mouse IL-2 levels were analyzed via ELISA (R&D Systems, Cat# DY402-05). IL-6 and IL-10 are NF-κB–induced cytokines that promote the proliferation and survival of malignant B cells through both autocrine and paracrine mechanisms ([44]), and are negative prognostic factors in ABC-DLBCL ([45], [46]). ABC-DLBCL cell lines spontaneously secrete substantial levels of IL-6 and IL-10, whereas GCB-DLBCL cell lines express only a negligible amount of these cytokines ([24]). […] The IC50 for inhibition of cytokine secretion by each compound in each cell line is reported in Supplemental Table 1.  Figure 4 M1i-124 and M1i-124d1 inhibit MALT1 protease and scaffolding functions, and MALT1-dependent cytokine secretion, in ABC-DLBCL cells. (A and B) Effect of 1 μM compound pretreatment on constitutive RelB cleavage (A) and IκB phosphorylation (B) within TMD8 cells. Representative Western blots are shown along with quantification (mean ± SEM; n = 2). (C) IL6 and IL10 mRNA levels in TMD8 cells treated with 1 μM M1i-124 or M1i-124d1 (mean ± SEM; n = 6). […] Statistical analyses were performed using 1-way ANOVA and Dunnett’s multiple-comparison test. **P < 0.01, ***P < 0.001, ****P < 0.0001.

For the compound `COc1ccc(CNS(=O)(=O)c2ccc(Cc3ccc(S(=O)(=O)NCc4ccc(OC)cc4)cc3)cc2)cc1` [M1i-124d1], the IC50 came to 2.2 µM.
Under `O=S(=O)(NCc1ccc2c(c1)OCO2)c1ccc(Cc2ccc(S(=O)(=O)NCc3ccc4c(c3)OCO4)cc2)cc1` [M1i-124] stands 0.7 µM.
